Molecular target: T1, VEGFR-2 (Homo sapiens, UniProt P35968)
T1 construct: gene KDR
Assay: in vitro VEGFR-2 enzyme inhibition assay
Type: biochemical

T1 sequence (P35968 20-1356): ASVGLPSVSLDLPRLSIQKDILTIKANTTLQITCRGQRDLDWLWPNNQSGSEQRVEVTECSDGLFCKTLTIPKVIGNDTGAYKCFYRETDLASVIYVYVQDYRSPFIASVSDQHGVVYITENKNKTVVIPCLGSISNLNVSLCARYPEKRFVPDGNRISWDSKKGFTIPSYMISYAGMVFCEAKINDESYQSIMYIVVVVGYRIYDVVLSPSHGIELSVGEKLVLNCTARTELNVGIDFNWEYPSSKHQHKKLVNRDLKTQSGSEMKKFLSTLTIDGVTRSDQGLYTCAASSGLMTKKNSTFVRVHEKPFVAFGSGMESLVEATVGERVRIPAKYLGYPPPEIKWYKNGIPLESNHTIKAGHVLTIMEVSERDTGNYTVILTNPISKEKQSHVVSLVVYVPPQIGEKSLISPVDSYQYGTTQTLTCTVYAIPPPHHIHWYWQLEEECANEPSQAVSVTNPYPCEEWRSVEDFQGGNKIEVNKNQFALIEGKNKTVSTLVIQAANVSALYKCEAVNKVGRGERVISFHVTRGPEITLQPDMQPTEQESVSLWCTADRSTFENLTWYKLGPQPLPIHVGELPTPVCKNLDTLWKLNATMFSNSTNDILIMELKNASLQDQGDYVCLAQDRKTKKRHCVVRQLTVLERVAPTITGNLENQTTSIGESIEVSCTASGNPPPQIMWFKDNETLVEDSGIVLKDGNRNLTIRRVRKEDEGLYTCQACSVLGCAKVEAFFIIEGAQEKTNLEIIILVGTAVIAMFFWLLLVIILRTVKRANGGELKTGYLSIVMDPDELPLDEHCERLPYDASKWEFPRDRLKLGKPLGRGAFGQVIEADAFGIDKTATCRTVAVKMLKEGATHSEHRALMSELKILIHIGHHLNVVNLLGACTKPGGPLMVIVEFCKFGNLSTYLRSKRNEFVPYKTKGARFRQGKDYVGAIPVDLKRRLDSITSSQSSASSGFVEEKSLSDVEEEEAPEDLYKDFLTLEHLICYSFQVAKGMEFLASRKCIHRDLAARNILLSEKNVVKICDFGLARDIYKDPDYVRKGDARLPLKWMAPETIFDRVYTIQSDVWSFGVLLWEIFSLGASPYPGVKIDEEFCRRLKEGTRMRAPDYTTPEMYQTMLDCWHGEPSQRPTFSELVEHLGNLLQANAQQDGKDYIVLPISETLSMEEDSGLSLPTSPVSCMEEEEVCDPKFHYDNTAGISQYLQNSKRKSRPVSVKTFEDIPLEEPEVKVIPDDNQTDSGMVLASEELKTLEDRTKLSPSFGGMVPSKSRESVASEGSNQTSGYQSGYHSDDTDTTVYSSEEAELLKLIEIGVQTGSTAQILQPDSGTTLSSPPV

O=C(N/C=C/C=C/c1ccc2c(c1)OCO2)Nc1ccc(Cl)cc1 [8q, 1-((1E,3E)-4-(Benzo[d]1,3dioxol-5-yl)buta-1,3-dien-1-yl)-3–(4-chlorophenyl)urea]
IC50: 231 ± 5 nM

From paper PMC8667897, “Natural inspired piperine-based ureas and amides as novel antitumor agents towards breast cancer” (Journal of Enzyme Inhibition and Medicinal Chemistry, 2021)
